Reference: PubChem BioAssay AID1963841 (Molecular Pharmacology Branch, DTP, NCI, 2024)
Several values for one entry are separate records, joined by “and”; a condition that tells them apart may be missing. Equal values may be shown once.

Tested on: 439559-082-T-J2-PDC spheroid viability
Test: Anticancer human tumor 439559-082-T-J2-PDC patient-derived colon adenocarcinoma cell line growth inhibition [POLQ]
Details: spheroids with HUVEC and MSC; for viability, T/C: stronger effect = lower value; for IC50: curve of compound
Procedure: Multicellular complex tumor spheroid response to Polymerase (POL) inhibitors (novobiocin, ART-558, RP6685) in combination with a variety of drugs and investigational agents in selected tumor cell lines
The POL inhibitors (novobiocin, ART-558, and RP6685) were evaluated both individually and in combination with standard of care and investigational anticancer small molecules within a complex spheroid model of solid tumors. . Complex spheroids include a stromal component modeled by human endothelial cells (HUVEC) and fibroblasts modeled by human mesenchymal stem cells (MSCs). The concentration ranges selected for each drug and investigational agent were based upon clinically achievable concentrations if the clinical Cmax of the agent was known.
Compounds. The drugs and investigational agents: novobiocin (NSC847541), ART-558 (NSC835418), RP-6685 (NSC848927), peposertib (NSC802822), ceralasertib (NSC780249), elimusertib (NSC800525), camonsertib (NSC841442), AZD-1390 (NSC803789), olaparib (NSC753686), talazoparib (NSC767125), rucaparib (NSC756644), sotorasib (NSC818433), MRTX-1133 (NSC836407), SN-38 (NSC673596), topotecan (NSC609699), epotoside (NSC141540), doxorubicin (NSC123127), gemcitabine (NSC613327), 5-fluorouracil (NSC19893), paclitaxel (NSC125973), vemurafenib (NSC761431), MSA-2 (NSC828583), SN-011 (NSC837082), adavosertib (NSC754352), prexasertib (NSC758257), carboplatin (NSC241240) and oxaliplatin (NSC266046), were obtained from the National Cancer Institute (NCI) Developmental Therapeutics Program Chemical Repository (21). The FDA-approved anticancer drug set is available from the Developmental Therapeutics Program at https://dtp.cancer.gov/organization/dscb/obtaining/. […] The stock solutions were prepared in dimethyl sulfoxide (DMSO, Sigma-Aldrich, St. Louis, MO, cat. D2650), except for the platinum compounds which were prepared in saline (Quality Biological, Gaithersburg, MD, cat. 114-055-101), at 800-fold the tested concentration and stored at -70 degrees C prior to their use. All drugs and investigational agents were tested over a range starting from a high concentration at or near the clinical Cmax and decreasing in half-log increments. If the clinical Cmax for an agent had not been determined, the highest concentration tested was 10 microM, except for SN-38, which was tested at a high concentration of 1 microM.
Cell Culture. All cells were maintained in an incubator at 37 degrees C and 5% CO2 with 95% humidity. The PDC lines were cultured according to standard operating procedures established by the NCI PDMR (https://pdmr.cancer.gov). Table 3 of the manuscript, lists the cell lines along with the number of the three cell types plated to form the mct-spheroids and media for tumor cell growth. After thawing, all PDC lines, except 997537-175-T-J1-PDC and 415267-285-R-J2-PDC, were cultured in Matrigel-coated flasks prepared with a working solution of 1X Ham's F-12 nutrient mix, without supplementation (Thermo Fisher Scientific, cat. 11765054), 100 U/mL penicillin-streptomycin (Thermo Fisher Scientific, cat. 15140122), and 2.5% Matrigel (Corning Inc., Corning, NY, cat. 354248) for the first three passages. The two PDC lines 997537-175-T-J1-PDC and 415267-285-R-J2-PDC were cultured on uncoated flasks. The 857933-349-R-J2-PDC line was cultured in 6C/Colon 1B media containing advanced DMEM/F-12 (Thermo Fisher Scientific, cat. 12634028), 10 mM HEPES (Thermo Fisher Scientific, cat. 15630080), 1X GlutaMAX supplement (Thermo Fisher Scientific, cat. 35050061), 0.1 mg/mL primocin (InvivoGen, San Diego, CA, cat. ant-pm-2), 10% defined fetal bovine serum, heat inactivated (HyClone Laboratories Inc., Logan, UT, cat. SH30070.03HI), 50% L-WRN conditioned media (ATCC, cat. CRL-3276), 1.25 mM N-Acetyl-L-cysteine (Sigma-Aldrich, cat. A9165), 10 mM nicotinamide (Sigma-Aldrich, cat. N0636), 1X B-27 supplement (Thermo Fisher Scientific, cat. 17504044), 1X N-2 supplement (Thermo Fisher Scientific, cat. […]
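Further: spheroids exposed to compounds for seven days before readout.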
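Wherever viability, T/C is given: 100% = DMSO vehicle control viability.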

Compound	viability, T/C (compound 0.0316 µM)	viability, T/C (compound 0.1 µM)	viability, T/C (compound 0.316 µM)	viability, T/C (compound 1 µM)	viability, T/C (compound 3.16 µM)	viability, T/C (compound 10 µM)	IC50	viability, T/C (compound 0.00316 µM)	viability, T/C (compound 0.01 µM)	viability, T/C (compound 0.0949 µM)	viability, T/C (compound 0.3 µM)	viability, T/C (compound 0.949 µM)	viability, T/C (compound 3 µM)	viability, T/C (compound 0.000316 µM)	viability, T/C (compound 0.001 µM)
C#Cc1c(F)ccc2cc(O)cc(-c3ncc4c(N5CC6CCC(C5)N6)nc(OCC56CCCN5CC(F)C6)nc4c3F)c12 (stereo unspecified)	98.3% and 86.1% and 91.5%	87.7% and 85.2% and 81.3%	72.3% and 64.9% and 72.9%	66.5% and 68.4% and 70.6%	59.8% and 69.2% and 61.3%	53% and 67.8% and 51%	> 10 µM	–	–	–	–	–	–	–	–
C=CC(=O)N1CCN(c2nc(=O)n(-c3c(C)ccnc3C(C)C)c3nc(-c4c(O)cccc4F)c(F)cc23)C(C)C1 (stereo unspecified)	93% and 88.6% and 99.7%	91.5% and 84.4% and 100%	95.6% and 90.7% and 99.1%	96.8% and 92.5% and 105%	97.7% and 80.5% and 99.9%	98.6% and 103% and 108%	> 10 µM	–	–	–	–	–	–	–	–
C=CCn1c(=O)c2cnc(Nc3ccc(N4CCN(C)CC4)cc3)nc2n1-c1cccc(C(C)(C)O)n1	98.5% and 99.2% and 89.3%	97.7% and 104% and 90.1%	99.3% and 97.5% and 91.7%	81.2% (2×) and 83.4%	–	–	> 1 µM	97.3% and 99% and 101%	93.6% and 96.3% and 96.2%	–	–	–	–	–	–
CC(=O)O[C@H]1C(=O)[C@@]2(C)[C@H]([C@H](OC(=O)c3ccccc3)[C@]3(O)C[C@H](OC(=O)[C@H](O)[C@@H](NC(=O)c4ccccc4)c4ccccc4)C(C)=C1C3(C)C)[C@]1(OC(C)=O)CO[C@@H]1C[C@@H]2O	–	–	–	–	–	–	2.24 µM and 1.18 µM and 1.44 µM	–	–	83% and 81.7% and 82.3%	77.9% and 70.6% and 74.8%	68.7% and 51.8% and 55.5%	43.4% and 22.5% and 40.4%	–	–
CC(C)n1c(=O)n(C)c2cnc3cc(F)c(-c4ccc(OCCCN5CCCCC5)nc4)cc3c21	–	–	–	–	116% and 127% and 102%	–	> 10 µM	–	–	–	–	–	–	–	–
CC1COCCN1c1cc(-c2ccnn2C)c2ccnc(-c3ccn[nH]3)c2n1 (stereo unspecified)	97.4% and 94.7% and 96.7%	69.8% and 71.2% and 83.1%	51.1% and 45.3% and 54.1%	46.9% and 43.4% and 49.2%	–	43.8% and 39.4% and 49.2%	–	–	–	–	–	–	–	–	–
CC1COCCN1c1cc(C2(O)CC3CCC(C2)O3)c2cnn(-c3ccn[nH]3)c2n1 (stereo unspecified)	92.2% and 97.5% and 97.8%	82.7% and 81.3% and 85.3%	70.9% and 70.1% and 75.3%	61.7% and 59.7% and 72.1%	47.5% and 49% and 59.7%	46.5% and 47% and 53.5%	3.48 µM and 4.1 µM and > 10 µM	–	–	–	–	–	–	–	–
CC1COCCN1c1cc(C2(S(C)(=N)=O)CC2)nc(-c2ccnc3[nH]ccc23)n1 (stereo unspecified)	100% and 99.8% and 96.6%	98.7% and 94.7% and 99.4%	95.2% and 91.3% and 98.8%	96% and 88% and 91.1%	94.9% and 97.8% and 85.5%	67.7% and 75.1% and 68.6%	> 10 µM	–	–	–	–	–	–	–	–
CCCS(=O)(=O)Nc1ccc(F)c(C(=O)c2c[nH]c3ncc(-c4ccc(Cl)cc4)cc23)c1F	97.4% and 77.9% and 99.4%	–	102% and 105% and 90%	103% and 87.8% and 100%	–	–	> 10 µM and 7.74 µM	–	–	–	–	–	–	–	–
CC[C@@]1(O)C(=O)OCc2c1cc1n(c2=O)Cc2cc3c(CN(C)C)c(O)ccc3nc2-1	95.1% and 96.1% and 93.2%	88.2% and 77.2% and 75.9%	–	–	–	–	> 0.1 µM	100% and 111% and 96.2%	92.8% and 100% and 106%	–	–	–	–	102% and 87.1% and 100%	101% and 94.2% and 99%
CCc1c2c(nc3ccc(O)cc13)-c1cc3c(c(=O)n1C2)COC(=O)[C@]3(O)CC	71.9% and 75.1% and 71.4%	72.1% and 79.6% and 64.2%	63.3% and 81% and 57.8%	40.5% and 58.2% and 35.7%	–	–	0.627 µM and > 1 µM and 0.375 µM	95.8% and 83.5% and 94.6%	85% and 74.5% and 81%	–	–	–	–	–	–
CCc1cc2c(N3CCc4c(cc(Cn5ccnc5)cc4-c4cn(C)nc4C(F)(F)F)C3=O)cc(C)nc2c(OC)n1	105% and 93.7% and 95.3%	94.8% and 96.5% and 90.4%	94.4% and 95.2% and 87.4%	103% and 91.7% and 94.3%	99.1% and 101% and 92.2%	94.1% and 90.4% and 87.9%	> 10 µM	–	–	–	–	–	–	–	–
CCc1cc2c(N3CCc4c(cc(Cn5ccnc5)cc4-c4cn(C)nc4C(F)(F)F)C3=O)ccnc2c(OC)n1	96.6% and 87.7% and 94.8%	100% and 94.5% and 93.2%	102% and 101% and 87.4%	101% and 95% and 96%	107% and 95% and 90.8%	94.8% and 89.2% and 94.2%	> 10 µM	–	–	–	–	–	–	–	–
CNCc1ccc(-c2[nH]c3cc(F)cc4c3c2CCNC4=O)cc1	95.3% and 101% and 103%	100% and 103% and 95.7%	102% and 96.3% and 92.9%	98.9% and 111% and 95.9%	108% and 124% and 107%	94.3% and 101% and 108%	> 10 µM	–	–	–	–	–	–	–	–
